We go through one sequence from US20170320939A1, “COLL2-1 PEPTIDE AND ITS NITRATED FORM AS THERAPEUTIC TARGETS FOR OSTEOARTHRITIS TREATMENT” (Université de Liège, priority 2014, published 2017).

Entries after “also recorded” stand apart in the source; their conditions may differ.

What all share (assay type): cell-based, human
Assay [1] concerns OA synovial fibroblast cells. The experiment in a line: NO production in OA synovial fibroblast cells. The conditions noted are these: Coll2-1 (0.45 and 4.5 nmol) or Coll2-1NO2 (4 and 40 pmol), 24 hours. The protocol:
1.1 Patients. Synovial tissue samples were obtained from 10 patients (8 women, 2 man; mean age 70 +/−6 years) with osteoarthritis (OA) of the knee at the time of total knee joint replacement surgery. All the subjects provided their informed consent.
1.2 Isolation and culture of synovial cells. Synovium biopsies were digested is with collagenase from Clostridium histolyticum, Type IA (1 mg/ml) (Sigma-Aldrich, Saint-Louis, USA) and 0.25% trypsin (Sigma Aldrich, Saint Louis, USA) with 0.68 mM EDTA in Tris buffer 0.1M, pH 7.4 in complete medium (CM) (DMEM (Dulbecco's Modified Eagle's Medium) Low Glucose supplemented with 10 mM HEPES, 100 U/ml penicillin, 100 μg/ml streptomycin, 2 mM glutamine and 10% fetal calf serum (Lonza, Verviers, Belgium)) for 1 hour at 37° C. The cells suspensions were passed through a 70-μm filter to remove any undigested tissue. The filtered cells suspensions were then collected by centrifugation at 800 g and were cultured in culture flasks. After 24 hours, medium was changed to eliminate non adherent cells. Synovial fibroblasts cells (SFC) were used after three passages. […]
1.7 NO production. Nitric oxide production was evaluated using a DAF2-DA fluorescent probe (Molecular Probes, Leiden, The Netherlands). […] The fluorescence intensity was measured every hour for 6 hours. […] The numbers of adherent cells were measured by cristal violet assay.

The subject of the next assay is TSP1. As to the kind of experiment: TSP1 mRNA expression by Real Time PCR in OA synovial fibroblast cells. The conditions noted are these: increasing concentrations: Coll2-1 (0.45 and 4.5 nmol) or Coll2-1NO2 (4 and 40 pmol), 24 hours. The protocol:
(§1) 1.3 Treatment of synovial fibroblast cells. Cells were seeded into a six-well plate at the density of 2×10^5 cells/well in 2 ml of CM. When the cells reached confluence, the CM was replaced with 1% serum medium for 24 h to keep the cells quiescent. Cells were incubated for 24 hours with or without peptides Coll2-1 (^108HRGYPGLDG^116; 0.45 and 4.5 nmol) or Coll2-1NO2 (^108HRGYPGLDG-NO2^116; 4 and 40 pmol) at a range of concentrations found in the blood of osteoarthritic patients.
(§2) 1.4 RNA extraction and Real Time Reverse Transcriptase-Polymerase Chain Reaction (RT PCR). Total RNA were extracted using the RNeasy Mini Kit (Qiagen, Netherlands) and were reverse transcribed with SuperScript III Reverse Transcriptase (Invitrogen, Belgium) according to the manufacturer's instructions. The cDNAs were quantified by real-time quantitative PCR using the Rotor Gene instrument (Qiagen, Venlo, Netherlands) and the SYBR Premix Ex Taq kit (Takara, Verviers, Belgium). The level of gene expression was determined by interpolation with a standard curve. To standardize mRNA levels, HPRT, a house keeping gene, was amplified as an internal control. The oligonucleotide primers sequences were as follow: HPRT forward, 5′-[…]-3′ (SEQ ID NO: 2); HPRT reverse, 5′-TGCCTGACCAAGGAAAGC-3′ (SEQ ID NO: 3); TSP-1 forward, 5′-CAGACCGCATTGGAGATAC-3′ (SEQ ID NO: 4); TSP-1 reverse, 5′-[…]-3′ (SEQ ID NO: 5); VEGF forward, 5′-TGCCTTGCTGCTCTAC-3′ (SEQ ID NO: 6); VEGF reverse, 5′-CACACAGGATGGCTTGAA-3′ (SEQ ID NO: 7); IL-6 forward, 5′-AAACAAATTCGGTACATCCTCG-3′ (SEQ ID NO: 8); IL-6 reverse, 5′-CCA GGC AAG TCT CCT CAT-3′ (SEQ ID NO: 9); IL-8 forward, 5′-GGAACCATCTCACTGTGTGTAA-3′ (SEQ ID NO: 10); IL-8 reverse, 5′-TGGAAAGGTTTGGAGTATGTCT-3′ (SEQ ID NO: 11).

The subject of another assay is IL-8. The experiment in a line: IL-8 mRNA expression by Real Time PCR in OA synovial fibroblast cells. To be noted: 24 hours. The protocol: as §1, §2

For HRGYPGLDG [Coll2-1], in assay [1], the “production of NO (nitric oxide)” value is on record as “decreased significantly; also recorded: decrease”. Further, the TSP1 expression result in the assay on TSP1 is on record as “decrease”. In addition, the IL8 gene expression entry with IL-8 (Coll2-1 at 0.45 nmol) and with IL-8 (Coll2-1 at 4.5 nmol) was “dose-dependently increased” throughout. The IL-8 expression entry with IL-8 (increasing concentrations: Coll2-1 (0.45 and 4.5 nmol) or Coll2-1NO2 (4 and 40 pmol)) is “increased”.
